Data from paper PMC11012799 (Molecules, 2024).
≈ marks a conversion by molar mass, not a printed value. Structures can show the parent of a compound that is named as a salt. Where two headings read alike, the source gives them in different places.

Assays:
[1] = system: Escherichia coli NCTC 8196; assay: MIC, two-fold microdilution (EUCAST), E. coli reference strain; format: cell-based; conditions: read-out: MIC (µM) Escherichia coli NCTC 8196
From the text: (§1) A panel of reference bacteria, including Escherichia coli NCTC 8196, Staphylococcus aureus ATCC 6538, Klebsiella pneumoniae ATCC 13883, and Pseudomonas aeruginosa NCTC 6749, was used to assess the antibacterial activity of the nine tested aziridine phosphines (1–4) and aziridine phosphine oxides (5–9). The two-fold microdilution method, following EUCAST guidelines, was used to determine a minimal inhibitory concentration (MIC) of each compound, as presented in Table S1.
(§2) Antibacterial activity: The in vitro antibacterial activity of nine tested aziridine phosphines (1–4) and aziridine phosphine oxides (5–9) was evaluated against reference bacterial strains (E. coli NCTC 8196, S. aureus ATCC 6538, K. pneumoniae ATCC 13883, P. aeruginosa NCTC 6749) and 12 S. aureus clinical isolates, including two methicillin-resistant isolates (MRSA, D15 and D17) obtained from infected patients hospitalized at the Oncological Hospital in Lodz (Poland). All strains were kept frozen at −80 °C in Tryptic Soy Broth with 15% glycerol. The minimal inhibitory concentration (MIC) is defined as the lowest concentration of the compound that prevents visible growth of bacteria using the microdilution method followed the EUCAST guidelines. Each compound was added to 96-well microplates in two-fold dilutions at concentrations from 3.125 to 100 μM in Mueller–Hinton broth. […] Bacterial culture was added into wells at a density of 5 × 10^5 CFU mL^−1, and plates were incubated at 37 °C for 18 h. As a positive control, an untreated bacterial culture was used, and a clear culture medium served as a negative control. The optical density at OD600 was measured using the SpectraMax i3 Multi-Mode Platform (Molecular Devices, San Jose, CA, USA). Ciprofloxacin hydrochloride (CIP, Sigma-Aldrich, Darmstadt, Germany) was used as a reference antimicrobial drug.

[2] = system: Staphylococcus aureus ATCC 6538; assay: MIC, two-fold microdilution (EUCAST), S. aureus reference strain; format: cell-based; conditions: read-out: MIC (µM) Staphylococcus aureus ATCC 6538
From the text: as §1, §2

[3] = system: Klebsiella pneumoniae ATCC 13883; assay: MIC, two-fold microdilution (EUCAST), K. pneumoniae reference strain; format: cell-based; conditions: read-out: MIC (µM) Klebsiella pneumoniae ATCC 13883
From the text: as §1, §2

[4] = system: Pseudomonas aeruginosa NCTC 6749; assay: MIC, two-fold microdilution (EUCAST), P. aeruginosa reference strain; format: cell-based; conditions: read-out: MIC (µM) Pseudomonas aeruginosa NCTC 6749
From the text: as §1, §2

L929 cells = assay: cells; format: cell-based, murine; conditions: read-out: IC50 (µM) L929
Method: (§3) Considering our previous research and the literature reports on the antitumor activity of aziridine derivatives, aziridine phosphines (1–4) and aziridine phosphine oxides (5–9) were tested to investigate their potential anticancer activity. The in vitro effects on cell viability were assessed using the 3-(4,5-dimethylthiazol-2-yl)-2,5-diphenyltetrazolium bromide (MTT) assay on non-tumorigenic murine fibroblasts (L929) as well as two cancer cell lines: human cervical epithelioid carcinoma (HeLa) cells and endometrial adenocarcinoma (Ishikawa) cells.
(§4) Cell viability inhibition: The in vitro effects on cell viability were determined using the 3-(4,5-dimethylthiazol-2-yl)-2,5-diphenyltetrazolium bromide (MTT) assay on non-tumorigenic murine fibroblasts L929 (ATTC®—CCL-1) as well as two cancer cell lines: human cervical epithelioid carcinoma HeLa cells (ATTC®—CCL-2™) and endometrial adenocarcinoma Ishikawa cells (ECACC 99040201). Cells were cultured on 96-well microplates at a density of 1 × 10^4 cells/well following the international in Dulbecco’s Modified Eagle’s Medium (DMEM, Biowest) supplemented with 10% fetal bovine serum (FBS, Biowest, Nuaillé, France), 100 U/mL of penicillin, and 100 μg/mL of streptomycin (Biowest, Nuaillé, France). After overnight incubation at 37 °C and 5% CO2, the growth medium was removed and 100 μL of fresh media with two-fold dilutions of the tested compounds at concentrations of 3.125–100 μM were added. […] Untreated cells in medium were used as a positive control, while a clear culture medium served as a negative control.

HeLa cells = assay: cells; format: cell-based, human; conditions: for IC50: read-out: IC50 (µM) HeLa; for selectivity index (SI) HeLa: efficacy against HeLa versus normal fibroblasts L929, SI > 1.0 = greater efficacy against cancer cells
Method: as §3, §4

Ishikawa cells = assay: cells; format: cell-based, human; conditions: for IC50: read-out: IC50 (µM) Ishikawa; for selectivity index (SI) Ishikawa: efficacy against Ishikawa versus normal fibroblasts L929, SI > 1.0 = greater efficacy against cancer cells
Method: as §3, §4

[5] = system: clinical S. aureus strains; assay: MIC, microdilution, 12 clinical S. aureus strains; format: cell-based, Staphylococcus aureus; conditions: panel of 12 clinical isolates (naso-pharynx, ulcers/furuncles, bones), highest tested concentration 100 µM
From the text: as §1, §2

[6] = MTT, 24 h treatment, IC50 ± SD, three independent experiments
[7] = Escherichia coli, NCTC8196, 18 h
[8] = Staphylococcus aureus, ATCC6538, 18 h
[9] = Klebsiella pneumoniae, ATCC13883, 18 h
[10] = Pseudomonas aeruginosa, NCTC6749, 18 h
[11] = tested range 3.125–100 µM, 37 °C, 18 h

Compound | IC50 (L929 cells; Mus musculus, L929, 24 h) [µM] | IC50 (HeLa cells; Homo sapiens, 24 h) [µM] | selectivity index (SI) HeLa (HeLa cells) | IC50 (Ishikawa cells; Homo sapiens, Ishikawa, 24 h) [µM] | selectivity index (SI) Ishikawa (Ishikawa cells) | MIC [1, 7] [µM] | MIC [2, 8] [µM] | MIC [3, 9] [µM] | MIC [4, 10] [µM] | other results
O=C(O)c1cn(C2CC2)c2cc(N3CCNCC3)c(F)cc2c1=O [CIP, Ciprofloxacin hydrochloride, reference compound] |  |  |  |  |  |  |  |  |  | MIC ([1]; Escherichia coli, NCTC8196, tested range 3.125–100 µM, 37 °C, 18 h): 0.04 µM; MIC ([2]; Staphylococcus aureus, ATCC6538, tested range 3.125–100 µM, 37 °C, 18 h): 1.6 µM; MIC ([3]; Klebsiella pneumoniae, ATCC13883, tested range 3.125–100 µM, 37 °C, 18 h): 0.2 µM; MIC ([4]; Pseudomonas aeruginosa, NCTC6749, tested range 3.125–100 µM, 37 °C, 18 h): 2.5 µM
N.N.[Cl][Pt][Cl] [CisPt, cisplatin, reference compound] |  |  |  |  |  |  |  |  |  | IC50 (L929 cells; [6]): 26.2 ± 7.5 µM; IC50 (HeLa cells; [6]): 10.4 ± 4.4 µM; IC50 (Ishikawa cells; [6]): 17.3 ± 5.2 µM
CC(C)[C@@H]1CN1c1ccccc1P(c1ccccc1)c1ccccc1 [Compound 1] | 68.1 ± 11.2 | > 100 | < 1 | 13.9 ± 7.1 | 4.9 | > 100 | 50 (≈ 17.3 µg/mL) | > 100 | > 100 | 
CC(C)[C@H]1CN1c1ccccc1P(c1ccccc1)c1ccccc1 [Compound 2] | > 100 | > 100 |  | 14.8 ± 6.5 | > 6.7 | > 100 | 50 (≈ 17.3 µg/mL) | > 100 | > 100 | 
CC(C)C[C@H]1CN1c1ccccc1P(c1ccccc1)c1ccccc1 [Compound 3] | > 100 | 30.3 ± 4.5 | > 3.3 | > 100 |  | > 100 | 50 (≈ 18 µg/mL) | > 100 | > 100 | 
c1ccc([C@H]2CN2c2ccccc2P(c2ccccc2)c2ccccc2)cc1 [Compound 4] | 22 ± 3.4 | 39.2 ± 6.7 | < 1 | > 100 | < 1 | > 100 | 50 (≈ 19 µg/mL) | > 100 | > 100 | 
CC(C)[C@H]1CN1c1ccccc1P(=O)(c1ccccc1)c1ccccc1 [Compound 6] | 13.7 ± 3.1 | 40.7 ± 11.1 | < 1 | 16.6 ± 2.5 | < 1 | > 100 | 50 (≈ 18.1 µg/mL) | > 100 | > 100 | MIC ([5]; Staphylococcus aureus): 100 µM (≈ 36.1 µg/mL); MIC [5]: 100 µM (≈ 36.1 µg/mL)
O=P(c1ccccc1)(c1ccccc1)c1ccccc1N1C[C@@H]1c1ccccc1 [Compound 8] | 17 ± 4.4 | 19.6 ± 3.2 | < 1 | 23.4 ± 7.6 | < 1 | > 100 | 50 (≈ 19.8 µg/mL) | > 100 | > 100 | 
(2S)-2-diphenylphosphinoyl-2-phenylaziridine [Compound 9] |  |  |  |  |  |  |  |  |  | IC50 (L929 cells; [6]): > 100 µM; IC50 (HeLa cells; [6]): 48.8 ± 12.3 µM; IC50 (Ishikawa cells; [6]): > 100 µM; MIC [1, 11]: > 100 µM; MIC [2, 11]: 50 µM; MIC [3, 11]: > 100 µM; MIC [4, 11]: > 100 µM
